What all share (assay type): cell-based, human
Test [1] has as its system HaCaT cells. Briefly: HaCaT cell spreading assay on oil interfaces (cell area from phalloidin staining). Particulars: HaCaT on BSA interfaces, Novec 7500+PFBC; blebbistatin 10 μM, Y27632 10 μM, Cytochalasin D 1 μM.
Procedure: Generation of fluorinated oil droplet substrates for cell culture. Thin glass slides (25×60 mm, VWR) were plasma oxidized for 10 minutes and placed into a staining jar. Toluene (1 mL, Sigma-Aldrich) and 30 μL trichloro (1H, 1H, 2H, 2H-perfluorooctyl) silane (Sigma-Aldrich) were added in a glass vial. The staining jar containing the glass slides and the glass vial with the silane solution were placed into a desiccator under vacuum for 5 min and then left under reduced atmosphere but sealed overnight. The fluorinated glass slides were cut into chips (1×1 cm) and placed into a 24 well plate. After sterilisation with 70% ethanol, the wells were washed (twice) and then filled with 2 mL PBS (pH 7.4, except when specified, for the adsorption of poly(L-lysine) at pH 10.5). 100 tL droplets of fluorinated oil (Novec 7500) with fluorinated surfactant (2,3,4,5,6-Pentafluorobenzoyl chloride) at specified concentrations (see specific experiments, but often 0.01 mg/mL) were deposited on top of the glass slide and formed a fluorinated oil droplet spreading over the entire substrate. […] For the deposition of BSA, a 10 μL BSA solution (100 mg/mL) was added into PBS, to make a final concentration of 1 mg/mL, and incubated for 1 h.
HaCaT keratinocyte cell line culture and seeding. Human keratinocyte HaCaT cells were cultured in DMEM (Thermofisher Scientific) containing 10% foetal bovine serum (FBS, Labtech), 1% L-Glutamine (200 mM) and 1% Penicillin-Streptomycin (5,000 U/mL). […] For cell spreading assays HaCaT cells were harvested and seeded onto fluorinated droplets at a density of 25,000 per well (13,000 per cm^2).
Immuno-fluorescence microscopy and data analysis. Fluorescence microscopy images were acquired with a Leica DMI4000B fluorescence microscopy (CTR4000 lamp; 63×1.25 NA, oil lens; 10×0.3 NA lens; 2.5×0.07 NA lens; DFC300FX camera). […] To determine adhesion cell areas, images were analyzed by thresholding and watershedding fluorescence images of the cytoskeleton (phalloidin stained). […]
In test [2] the test system is MSCs. The test is described as follows: MSC culture on fluorinated oils conditioned with culture medium only. As to conditions: after 7 days of culture; no protein nanosheets deposition, conditioning with cell culture medium. As for the experimental part:
(§1) Generation of liquid-liquid (FC-40) interfaces for cell culture. 24 well plates were plasma oxidized using a plasma coater (Diener, 100% intensity) for 10 minutes. 500 mL ethanol (VWR chemicals), 10 mL trimethylamine (Sigma-Aldrich) and 10 mL of the desired silane (triethoxy(octyl)silane (Sigma-Aldrich) to prepare interfaces with liquid PDMS, or trichloro (1H, 1H, 2H, 2H-perfluorooctyl) silane (Sigma-Aldrich) for the fluorinated oil) were added into each well. Ethanol was added in between wells to slow down evaporation and parafilm was used to seal the well plate lid. After incubating for 24 h, the wells were washed in a sterile environment with ethanol (twice) and ddH2O (three times). 500 μL FC-40 (Sigma) was added in the fluorophilic 24 well plate to form the bottom liquid layer, 2 mL of MSC growth medium was directly added on the FC-40 layer, 5K cells were seeded in each well.

Test [3] has as its system primary keratinocytes. Briefly: Keratinocyte cell sheet formation on flat fluorinated oil interfaces. As to conditions: FAD medium containing ROCK inhibitor, 10 μM; PLL-functionalised fluorinated oil. An excerpt:
Keratinocyte culture and seeding.
Immunofluorescence staining and antibodies.
Immuno-fluorescence microscopy and data analysis. Fluorescence microscopy images were acquired with a Leica DMI4000B fluorescence microscopy (CTR4000 lamp; 63×1.25 NA, oil lens; 10×0.3 NA lens; 2.5×0.07 NA lens; DFC300FX camera). Confocal microscopy images were acquired with a Leica TCS SP2 confocal and multiphoton microscope (X-Cite 120 LED lamp; 63×1.40-0.60 NA, oil lens; 10×0.3 NA lens; DFC420C CCD camera). To determine cell densities per mm^2, cell counting was carried out by thresholding and watershedding nuclei images in ImageJ. […] To determine adhesion cell areas, images were analyzed by thresholding and watershedding fluorescence images of the cytoskeleton (phalloidin stained). The area of cell clusters was removed when analysing results.

Test [4] deals with HaCaT cells. Briefly: HaCaT cell proliferation on liquid substrates (Hoechst staining). As to conditions: fluorinated oil supplemented with the surfactant. As for the experimental part:
as §1, with “liquid-liquid” for “liquid-liquid (FC-40)”, “[…]” for “mL”, “PDMS” for “PDMS,”, “cover.” for “lid.”, “500 μL FC-40 (Sigma) was added in the fluorophilic 24 well plate to form the bottom liquid layer, 2 mL of MSC growth medium was directly added on the FC-40 layer, 5K cells were seeded in each well.” left out
Hoechst staining and LIVE/DEAD cell viability assay. Cell proliferation was assessed via Hoechst staining. […] Viability of HaCaT cells on fluorinated oil interfaces was quantified by LIVE/DEAD viability/cytotoxicity assay using a kit supplied by Thermofisher Scientific. In brief, HaCaT cells were incubated in DMEM with 2 μM Calcein AM and 4 μM Ethidium homodimer for 30 min. stained cells were imaged using a Leica DM14000 fluorescence microscopy (see below). The percentage of viable cells was calculated by counting the number of green (live) cells and dividing by the total number of cells (including dead cells).
Immuno-fluorescence microscopy and data analysis. […]

Regarding `Cc1ccc2c(c1)C(=O)C1(O)CCN(c3ccccc3)C1=N2` (stereo not drawn) [Blebbistatin, blebbistatin], the “cell spreading on oil” value in test [1] is recorded as “slight increase”. For `CCOC(F)(C(F)(F)C(F)(F)C(F)(F)F)C(F)(C(F)(F)F)C(F)(F)F` (stereo not drawn) [Novec 7500, hexane, 3-ethoxy-1,1,1,2,3,4,4,5,5,6,6,6-dodecafluoro-2-(trifluoromethyl)], in test [2], the MSC proliferation result was “did not lead to any significant cell proliferation”.

In the case of `C[C@@H](N)[C@H]1CC[C@H](C(=O)Nc2ccncc2)CC1` [Y27632], the “integrity of keratinocyte cell sheets on oil” value in test [3] is “preserved their integrity”. Besides, the “cell spreading on oil” value in test [1] was “further decreased”. As to `C=C1[C@@H](C)[C@H]2[C@H](Cc3ccccc3)NC(=O)[C@]23[C@H](OC(C)=O)/C=C/[C@@](C)(O)C(=O)[C@@H](C)C/C=C/[C@H]3[C@@H]1O` [cytochalasin D, Cytochalasin D], the “cell spreading on oil” value in test [1] is “further decreased”. As for `O=C(Cl)c1c(F)c(F)c(F)c(F)c1F` [pentafluorobenzoyl chloride, 2,3,4,5,6-pentafluorobenzoyl chloride], the “HaCaT cell proliferation at the surface of fluorinated oil” value in test [4] is given as “proliferated”.

These data come from US20240200022A1, “METHODS AND SYSTEMS FOR THE CULTURE OF CELLS AT LIQUID-LIQUID INTERFACES” (QUEEN MARY UNIVERSITY OF LONDON, priority 2017, published 2024).
